Where two headings read alike, the source gives them in different places.
Assays:
PC3 cells = assay: Cell Proliferation Assays for FASN Inhibitors (PC3 cells, MTT); assay type: cell-based; conditions: Homo sapiens, PC-3, 96 h
Protocol: The effects of the FASN inhibitors on cultured cancer cell proliferation were studies with cell proliferation assays. PC3 cells were maintained at standard culture media (F12K media supplemented with 10% fetal bovine serum, 1×MEM nonessential amino acid and 1× penicillin/streptomycin). 2000-3000 cells/100 μL/well was seeded in a 96-well clear culture plate. The cells were incubated overnight in 5% CO2 at 37° C. for attachment. Cell media were removed and replaced with F12K media containing 10% lipid reduced serum and compound. The final DMSO concentration is 0.1%. The cells were maintained in 5% CO2 at 37° C. for 4 days. The viability of cells was determined by MTT assays. The IC50 of a given compound was calculated by fitting the dose response curve with a four parameter logistic equation.

FASN enzyme = FASN enzyme (Homo sapiens, UniProt P49327); assay: Enzymatic Assay for FASN Inhibitors; assay type: biochemical
Sequence of FASN enzyme (P49327 whole entry): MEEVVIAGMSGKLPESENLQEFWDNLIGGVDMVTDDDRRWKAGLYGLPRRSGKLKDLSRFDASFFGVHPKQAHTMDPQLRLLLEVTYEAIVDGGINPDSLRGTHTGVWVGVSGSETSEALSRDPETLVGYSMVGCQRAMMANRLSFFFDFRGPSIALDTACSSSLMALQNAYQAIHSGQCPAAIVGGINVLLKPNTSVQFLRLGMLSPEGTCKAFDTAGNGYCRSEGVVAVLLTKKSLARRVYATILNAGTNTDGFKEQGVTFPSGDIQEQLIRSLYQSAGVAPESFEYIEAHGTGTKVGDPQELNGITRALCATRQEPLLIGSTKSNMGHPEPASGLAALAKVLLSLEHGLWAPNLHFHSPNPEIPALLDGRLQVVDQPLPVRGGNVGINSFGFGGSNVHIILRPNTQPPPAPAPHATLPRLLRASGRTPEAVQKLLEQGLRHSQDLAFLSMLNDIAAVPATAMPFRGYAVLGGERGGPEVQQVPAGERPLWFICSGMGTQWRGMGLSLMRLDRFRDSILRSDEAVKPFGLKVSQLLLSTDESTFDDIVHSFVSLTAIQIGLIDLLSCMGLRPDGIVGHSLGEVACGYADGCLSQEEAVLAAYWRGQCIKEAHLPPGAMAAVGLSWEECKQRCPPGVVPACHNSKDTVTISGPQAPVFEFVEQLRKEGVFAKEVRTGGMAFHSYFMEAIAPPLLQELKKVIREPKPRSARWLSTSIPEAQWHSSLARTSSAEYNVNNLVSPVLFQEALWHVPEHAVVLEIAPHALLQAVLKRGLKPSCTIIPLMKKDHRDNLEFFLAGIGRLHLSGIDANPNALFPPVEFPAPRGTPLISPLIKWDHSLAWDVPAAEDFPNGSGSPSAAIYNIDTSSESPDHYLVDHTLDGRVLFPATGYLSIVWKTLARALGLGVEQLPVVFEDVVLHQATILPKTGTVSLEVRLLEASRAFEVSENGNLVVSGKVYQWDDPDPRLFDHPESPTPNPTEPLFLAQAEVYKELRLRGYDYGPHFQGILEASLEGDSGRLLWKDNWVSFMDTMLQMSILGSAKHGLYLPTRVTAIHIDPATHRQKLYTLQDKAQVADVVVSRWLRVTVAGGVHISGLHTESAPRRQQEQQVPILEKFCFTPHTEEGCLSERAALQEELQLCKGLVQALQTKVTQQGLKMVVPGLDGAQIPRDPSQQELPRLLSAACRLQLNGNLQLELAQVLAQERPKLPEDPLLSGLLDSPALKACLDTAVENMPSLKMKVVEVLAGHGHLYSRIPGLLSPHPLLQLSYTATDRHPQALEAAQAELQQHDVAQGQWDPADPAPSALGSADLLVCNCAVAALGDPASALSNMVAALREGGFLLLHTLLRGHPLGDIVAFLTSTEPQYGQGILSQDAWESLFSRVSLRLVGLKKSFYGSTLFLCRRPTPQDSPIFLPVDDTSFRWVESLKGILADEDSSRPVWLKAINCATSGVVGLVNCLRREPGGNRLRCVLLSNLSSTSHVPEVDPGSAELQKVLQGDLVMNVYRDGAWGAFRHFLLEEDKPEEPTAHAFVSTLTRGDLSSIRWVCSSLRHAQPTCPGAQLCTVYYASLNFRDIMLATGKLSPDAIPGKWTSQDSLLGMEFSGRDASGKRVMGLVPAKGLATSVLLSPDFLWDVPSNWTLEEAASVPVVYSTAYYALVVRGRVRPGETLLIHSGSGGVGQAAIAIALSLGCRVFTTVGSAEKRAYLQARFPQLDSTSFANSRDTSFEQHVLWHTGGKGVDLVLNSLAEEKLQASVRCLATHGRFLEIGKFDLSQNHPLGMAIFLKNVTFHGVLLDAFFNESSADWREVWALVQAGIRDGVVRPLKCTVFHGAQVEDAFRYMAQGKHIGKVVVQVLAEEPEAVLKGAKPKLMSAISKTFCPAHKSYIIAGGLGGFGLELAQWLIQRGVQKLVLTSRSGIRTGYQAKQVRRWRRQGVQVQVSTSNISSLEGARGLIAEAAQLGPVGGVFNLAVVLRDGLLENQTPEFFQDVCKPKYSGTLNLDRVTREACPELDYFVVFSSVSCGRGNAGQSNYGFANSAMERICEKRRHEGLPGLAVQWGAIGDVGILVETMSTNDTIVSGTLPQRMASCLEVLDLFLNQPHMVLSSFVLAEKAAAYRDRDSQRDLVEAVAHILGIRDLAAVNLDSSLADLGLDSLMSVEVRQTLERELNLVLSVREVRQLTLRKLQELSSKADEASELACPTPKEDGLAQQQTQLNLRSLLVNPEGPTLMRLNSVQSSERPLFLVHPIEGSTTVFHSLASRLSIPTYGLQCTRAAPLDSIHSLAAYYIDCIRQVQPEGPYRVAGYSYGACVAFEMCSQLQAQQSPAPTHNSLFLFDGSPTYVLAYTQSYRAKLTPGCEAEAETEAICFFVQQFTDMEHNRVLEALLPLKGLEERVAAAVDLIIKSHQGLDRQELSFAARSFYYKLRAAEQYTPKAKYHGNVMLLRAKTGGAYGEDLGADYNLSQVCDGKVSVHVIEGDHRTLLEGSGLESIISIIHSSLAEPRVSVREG
Procedure, shortened: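 40 nM FASN preincubated with compound 60 min at 25° C in HEPES pH 7.3 buffer with 0.04% Triton X-100. Then 20 μM acetyl-CoA, 60 μM malonyl-CoA and 100 μM NADPH added for 90 min, quenched with CPM thiol probe; fluorescence 360/530 nm, IC50 by four-parameter fit.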

[1] = read-out: IC50 (uM) < 0.5, 10% lipid reduced serum, 4 days, Table 3-1

| Structure (SMILES) | IC50 (PC3 cells; [1]) [µM] | IC50 (FASN enzyme) [nM] | IC50 (PC3 cells; read-out: IC50 (uM) ≥ 0.5, 10% lipid reduced serum, 4 days, Table 3-2) [µM] | IC50 (FASN enzyme; FASN enzymatic assay, Table 2-2) [nM] |
| --- | --- | --- | --- | --- |
| O=C(c1ccc(-c2ccc3scnc3c2)cc1)N1CCN(C(=O)C2(O)CC2)CC1 [1-[(4-{[4-(1,3-benzothiazol-5-yl)phenyl]carbonyl}piperazin-1-yl)carbonyl]cyclopropan-1-ol] | < 0.5 | < 500 | – | – |
| COc1ccc2nc(-c3ccc(C(=O)N4CCN(C(=O)C5(O)CC5)CC4)c(F)c3)ccc2c1 [1-[(4-{[2-fluoro-4-(6-methoxyquinolin-2-yl)phenyl]carbonyl}piperazin-1-yl)carbonyl]cyclopropan-1-ol] | < 0.5 | < 500 | – | – |
| O=C(c1ccc(-c2ccc3ncccc3c2)c(Cl)c1)N1CCN(C(=O)C2(O)CC2)CC1 [1-[(4-{[3-chloro-4-(quinolin-6-yl)phenyl]carbonyl}piperazin-1-yl)carbonyl]cyclopropan-1-ol] | < 0.5 | < 500 | – | – |
| Cn1c(-c2ccc(C(=O)N3CCN(C(=O)C4(O)CC4)CC3)cc2)cc2ccccc21 [1-[(4-{[4-(1-methyl-1H-indol-2-yl)phenyl]carbonyl}piperazin-1-yl)carbonyl]cyclopropan-1-ol] | < 0.5 | < 500 | – | – |
| O=C(c1ccc(-c2nc3ccccc3s2)cc1)N1CCN(C(=O)C2(O)CC2)CC1 [1-[(4-{[4-(1,3-benzothiazol-2-yl)phenyl]carbonyl}piperazin-1-yl)carbonyl]cyclopropan-1-ol] | < 0.5 | < 500 | – | – |
| O=C(c1ccc(-c2cc3ccccc3nc2O)cc1F)N1CCN(C(=O)C2(O)CC2)CC1 [3-[3-fluoro-4-({4-[(1-hydroxycyclopropyl)carbonyl]piperazin-1-yl}carbonyl)phenyl]quinolin-2-ol] | < 0.5 | < 500 | – | – |
| Cn1ccc2cc(-c3ccc(C(=O)N4CCN(C(=O)C5(O)CC5)CC4)c(Cl)c3)ccc21 [1-[(4-{[2-chloro-4-(1-methyl-1H-indol-5-yl)phenyl]carbonyl}piperazin-1-yl)carbonyl]cyclopropan-1-ol] | < 0.5 | < 500 | – | – |
| O=C(c1ccc(-c2cc(Cl)ccc2F)cc1)N1CCN(C(=O)C2(O)CC2)CC1 [1-[(4-{[4-(5-chloro-2-fluorophenyl)phenyl]carbonyl}piperazin-1-yl)carbonyl]cyclopropan-1-ol] | < 0.5 | < 500 | – | – |
| Cc1nn(C)c2ccc(-c3ccc(C(=O)N4CCN(C(=O)C5(O)CC5)CC4)cc3)cc12 [1-[(4-{[4-(1,3-dimethyl-1H-indazol-5-yl)phenyl]carbonyl}piperazin-1-yl)carbonyl]cyclopropan-1-ol] | < 0.5 | < 500 | – | – |
| O=C(c1ccc(-c2ccc3cnccc3c2)cc1)N1CCN(C(=O)C2CCO2)CC1 (stereo not shown) [6-[4-({4-[(oxetan-2-yl)carbonyl]piperazin-1-yl}carbonyl)phenyl]isoquinoline] | < 0.5 | < 500 | – | – |
| O=C(c1ccc(-c2cnc3ccccc3c2)cc1)N1CCN(C(=O)C2CCO2)CC1 (stereo not shown) [3-[4-({4-[(oxetan-2-yl)carbonyl]piperazin-1-yl}carbonyl)phenyl]quinoline] | – | < 500 | ≥ 0.5 | – |
| O=C(c1ccc(-c2ccc3c(ccn3C(F)(F)F)c2)cc1)N1CCN(C(=O)C2(O)CC2)CC1 [1-{[4-({4-[1-(trifluoromethyl)-1H-indol-5-yl]phenyl}carbonyl)piperazin-1-yl]carbonyl}cyclopropan-1-ol] | < 0.5 | – | – | 500 to 5000 |
| O=C(c1ccc(-c2nc3ccc(F)cc3o2)cc1)N1CCN(C(=O)C2(O)CC2)CC1 [1-[(4-{[4-(6-fluoro-1,3-benzoxazol-2-yl)phenyl]carbonyl}piperazin-1-yl)carbonyl]cyclopropan-1-ol] | < 0.5 | < 500 | – | – |
| O=C(c1ccc(-c2nc3cc(F)ccc3o2)cc1)N1CCN(C(=O)C2(O)CC2)CC1 [1-[(4-{[4-(5-fluoro-1,3-benzoxazol-2-yl)phenyl]carbonyl}piperazin-1-yl)carbonyl]cyclopropan-1-ol] | < 0.5 | < 500 | – | – |
| O=C(c1ccc(-c2cn3ccccc3n2)cc1)N1CCN(C(=O)C2(O)CC2)CC1 | < 0.5 | < 500 | – | – |
| O=C(c1ccc(-c2cnc3ccccc3c2)cc1)N1CCN(C(=O)C2(O)CCC2)CC1 [1-[(4-{[4-(quinolin-3-yl)phenyl]carbonyl}piperazin-1-yl)carbonyl]cyclobutan-1-ol] | < 0.5 | < 500 | – | – |
| O=C(c1ccc(-c2cccc(NS(=O)(=O)c3ccccc3)c2)cc1)N1CCN(C(=O)C2(O)CC2)CC1 [N-{3-[4-({4-[(1-hydroxycyclopropyl)carbonyl]piperazin-1-yl}carbonyl)phenyl]phenyl}benzenesulfonamide] | < 0.5 | < 500 | – | – |
| O=C(c1ccc(-c2ccc3ocnc3c2)cc1)N1CCN(C(=O)C2(O)CC2)CC1 [1-[(4-{[4-(1,3-benzoxazol-5-yl)phenyl]carbonyl}piperazin-1-yl)carbonyl]cyclopropan-1-ol] | < 0.5 | < 500 | – | – |

| Structure (SMILES) | IC50 (PC3 cells; [1]) [µM] | IC50 (FASN enzyme) [nM] | IC50 (PC3 cells; read-out: IC50 (uM) ≥ 0.5, 10% lipid reduced serum, 4 days, Table 3-2) [µM] | IC50 (FASN enzyme; FASN enzymatic assay, Table 2-2) [nM] |
| --- | --- | --- | --- | --- |
| Cn1cc2ccc(-c3ccc(C(=O)N4CCN(C(=O)C5(O)CC5)CC4)cc3)cc2n1 [1-[(4-{[4-(2-methyl-2H-indazol-6-yl)phenyl]carbonyl}piperazin-1-yl)carbonyl]cyclopropan-1-ol] | < 0.5 | < 500 | – | – |
| CC(C)n1cc(C#N)c2cc(-c3ccc(C(=O)N4CCN(C(=O)C5(O)CC5)CC4)cc3)ccc21 | < 0.5 | < 500 | – | – |
| O=C(c1ccc(-c2nc3ccc(Cl)cc3o2)cc1)N1CCN(C(=O)C2(O)CC2)CC1 [1-[(4-{[4-(6-chloro-1,3-benzoxazol-2-yl)phenyl]carbonyl}piperazin-1-yl)carbonyl]cyclopropan-1-ol] | < 0.5 | < 500 | – | – |
| N#Cc1c[nH]c2ccc(-c3ccc(C(=O)N4CCN(C(=O)C5(O)CC5)CC4)c(Cl)c3)cc12 | < 0.5 | < 500 | – | – |
| CC(C)S(=O)(=O)Nc1cccc(-c2ccc(C(=O)N3CCN(C(=O)C4(O)CC4)CC3)cc2)c1 | < 0.5 | < 500 | – | – |
| O=C(c1ccc(-c2ccc3c(ccn3C(F)(F)F)c2)c(Cl)c1)N1CCN(C(=O)C2(O)CC2)CC1 [1-{[4-({3-chloro-4-[1-(trifluoromethyl)-1H-indol-5-yl]phenyl}carbonyl)piperazin-1-yl]carbonyl}cyclopropan-1-ol] | < 0.5 | < 500 | – | – |
| N#Cc1cc2cc(-c3ccc(C(=O)N4CCN(C(=O)C5(O)CC5)CC4)cc3)ccc2[nH]1 [5-[4-({4-[(1-hydroxycyclopropyl)carbonyl]piperazin-1-yl}carbonyl)phenyl]-1H-indole-2-carbonitrile] | < 0.5 | < 500 | – | – |
| O=C(c1ccc(-c2ccc3occc3n2)cc1)N1CCN(C(=O)C2(O)CC2)CC1 [1-({4-[(4-{furo[3,2-b]pyridin-5-yl}phenyl)carbonyl]piperazin-1-yl}carbonyl)cyclopropan-1-ol] | < 0.5 | < 500 | – | – |
| O=C(c1ccc(-c2cnc3ccccc3c2)c(F)c1)N1CCN(C(=O)C2(O)CC2)CC1 [1-[(4-{[3-fluoro-4-(quinolin-3-yl)phenyl]carbonyl}piperazin-1-yl)carbonyl]cyclopropan-1-ol] | < 0.5 | < 500 | – | – |
| N#Cc1ccc2nc(-c3ccc(C(=O)N4CCN(C(=O)C5(O)CC5)CC4)cc3)oc2c1 [2-[4-({4-[(1-hydroxycyclopropyl)carbonyl]piperazin-1-yl}carbonyl)phenyl]-1,3-benzoxazole-6-carbonitrile] | < 0.5 | < 500 | – | – |
| COc1ccc2nc(-c3ccc(C(=O)N4CCN(C(=O)C5(O)CC5)CC4)cc3)cc(C)c2c1 [1-[(4-{[4-(6-methoxy-4-methylquinolin-2-yl)phenyl]carbonyl}piperazin-1-yl)carbonyl]cyclopropan-1-ol] | < 0.5 | < 500 | – | – |
| O=C(c1ccc(-c2ccc(Cl)cc2F)cc1)N1CCN(C(=O)C2(O)CC2)CC1 [1-[(4-{[4-(4-chloro-2-fluorophenyl)phenyl]carbonyl}piperazin-1-yl)carbonyl]cyclopropan-1-ol] | < 0.5 | < 500 | – | – |
| O=C(c1ccc(-c2ccc3occc3c2)cc1)N1CCN(C(=O)C2(O)CC2)CC1 [1-[(4-{[4-(1-benzofuran-5-yl)phenyl]carbonyl}piperazin-1-yl)carbonyl]cyclopropan-1-ol] | < 0.5 | < 500 | – | – |
| CS(=O)(=O)Nc1cccc(-c2ccc(C(=O)N3CCN(C(=O)C4(O)CC4)CC3)cc2)c1 [N-{3-[4-({4-[(1-hydroxycyclopropyl)carbonyl]piperazin-1-yl}carbonyl)phenyl]phenyl}methanesulfonamide] | < 0.5 | < 500 | – | – |
| O=C(c1ccc(-c2ccc3ncccc3c2)cc1F)N1CCN(C(=O)C2(O)CC2)CC1 [1-[(4-{[2-fluoro-4-(quinolin-6-yl)phenyl]carbonyl}piperazin-1-yl)carbonyl]cyclopropan-1-ol] | < 0.5 | < 500 | – | – |
| O=C(c1ccc(-c2cccc(NS(=O)(=O)C3CC3)c2)cc1)N1CCN(C(=O)C2(O)CC2)CC1 [N-{3-[4-({4-[(1-hydroxycyclopropyl)carbonyl]piperazin-1-yl}carbonyl)phenyl]phenyl}cyclopropanesulfonamide] | < 0.5 | < 500 | – | – |
| O=C(c1ccc(-c2ccc3[nH]ccc3n2)cc1)N1CCN(C(=O)C2(O)CC2)CC1 [1-({4-[(4-{1H-pyrrolo[3,2-b]pyridin-5-yl}phenyl)carbonyl]piperazin-1-yl}carbonyl)cyclopropan-1-ol] | < 0.5 | < 500 | – | – |

Reference: patent US10457655B2, “Compounds and compositions for inhibition of FASN” (FORMA Therapeutics, Inc., priority 2013, dated 2019)
